Reference: US5686486A, “4-hydroxy-benzopyran-2-ones and 4-hydroxy-cycloalkyl[b]pyran-2-ones useful to treat retroviral infections” (priority 1995, dated 1997)
“And” between values parts separate entries of the source, which are not always exact repeats. Equal values may be shown once. Read-outs that look alike come from different tables or passages of the source. One block for each compound: values may come before it.

Tests used:
HIV-1 protease [1] = biological target: T1, HIV-1 protease (Human immunodeficiency virus type 1 group M subtype B, UniProt P04585); test: biochemical; conditions: for inhibition at 0.123 µM: read-out: HIV-1 Protease % Inhib, dose 0.123 uM
How it was run: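 Biotinylated, FITC-labeled peptide substrate (20 μl of 0.2 μM) incubated with HIV-1 protease (10 μl of 0.1 μM) and compound in 0.1 M sodium acetate pH 5.5, 1.0 M NaCl, 0.05% NP-40, 1 h, room temperature, dark. Streptavidin beads then capture uncleaved substrate; filtered labeled product read by fluorescence, giving percent inhibition.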

HIV-1 protease [2] = biological target: T1, HIV-1 protease; test: biochemical; conditions: read-out: HIV-1 FITC KI
Protocol: Determination of Ki values utilizes the same materials and equipment employed for percent inhibition studies. Two-fold serial dilutions are made for a given inhibitor from 2, 3 or 4 starting concentrations with a total of 24, 36 or 48 individual inhibitor concentrations. These dilutions are performed utilizing the BioMek robotics system. The assay consists of 10 μL of 40 nM HIV-1 protease, 10 μL of the various inhibitor concentrations, and 20 μL of 200 μM substrate (40 μL total). The reaction is allowed to proceed for 90 min at room temperature, terminated with 40 μL of avidin beads and processed (supra vide). An inhibitor with a known Ki is run in parallel to verify the validity of the assay. The data is processed utilizing a computer program employing a nonlinear least square analysis of the data to generate the Ki values.

[3] = read-out: HIV-1 Protease % Inhib, dose 0.370 uM
[4] = read-out: HIV-1 Protease % Inhib, dose 1.100 uM
[5] = read-out: HIV-1 Protease % Inhib, dose 3.300 uM
[6] = read-out: HIV-1 Protease % Inhib, dose 10.000 uM
[7] = read-out: HIV-1 Protease % Inhib, dose 30.000 uM
[8] = dose 1.100 uM, read-out: HIV-1 Protease % Inhib
[9] = dose 3.300 uM, read-out: HIV-1 Protease % Inhib
[10] = dose 10.000 uM, read-out: HIV-1 Protease % Inhib
[11] = dose 30.000 uM, read-out: HIV-1 Protease % Inhib

SMILES: CCCC1CCCCCc2c1oc(=O)c([C@@H](c1ccccc1)C1CC1)c2O (mixture of isomers) [Example 232, 3-(R)-(Cyclopropylphenylmethyl)-4-hydroxy-10-(R and S)-propyl-5,6,7,8,9,10-hexahydro-cycloocta[b]pyran-2-one]
inhibition at 0.123 µM (HIV-1 protease [1]): 19.3%
inhibition at 0.37 µM (HIV-1 protease [1]; [3]): 51.2%
inhibition at 1.1 µM (HIV-1 protease [1]; [4]): 80.4%
inhibition at 3.3 µM (HIV-1 protease [1]; [5]): 95.3%
inhibition at 10 µM (HIV-1 protease [1]; [6]): 104%
inhibition at 30 µM (HIV-1 protease [1]; [7]): 95%
Ki (HIV-1 protease [2]): 30 nM

SMILES: CCCC1CCCCCc2c1oc(=O)c([C@H](c1ccccc1)C1CC1)c2O (mixture of isomers) [Example 235, 3-(S)-(Cyclopropylphenylmethyl)-4-hydroxy-10-(R and S)-propyl-5,6,7,8,9,10-hexahydro-cycloocta[b]pyran-2-one]
inhibition at 0.123 µM (HIV-1 protease [1]): 24.8%
inhibition at 0.37 µM (HIV-1 protease [1]; [3]): 71.8%
inhibition at 1.1 µM (HIV-1 protease [1]; [4]): 92.7%
inhibition at 3.3 µM (HIV-1 protease [1]; [5]): 105%
inhibition at 10 µM (HIV-1 protease [1]; [6]): 103%
inhibition at 30 µM (HIV-1 protease [1]; [7]): 99.5%
Ki (HIV-1 protease [2]): 11 nM

SMILES: O=c1oc2c(c(O)c1C(c1ccccc1)C1CC1)CCCCC2 (single isomer, unassigned) [Example 230, (R or S)-3-(Cyclopropylphenylmethyl)-6,7,8,9-tetrahydro-4-hydroxy-cyclohepta[b]pyran-2(5H)-one]
Ki (HIV-1 protease [2]): 264 nM and 280 nM

SMILES: O=c1oc2c(c(O)c1C(c1ccccc1)C1CC1)CCCCC2 (single isomer, unassigned) [Example 231, (R or S)-3-(Cyclopropylphenylmethyl)-6,7,8,9-tetrahydro-4-hydroxy-cyclohepta[b]pyran-2(5H)-one]
Ki (HIV-1 protease [2]): 109 nM and 126 nM

SMILES: CCCC1CCCCCc2c1oc(=O)c([C@@H](c1ccccc1)C1CC1)c2O (single isomer, unassigned) [Example 233, 3-(R)-(Cyclopropylphenylmethyl)4-hydroxy-10-(R or S)-propyl-5,6,7,8,9,10-hexahydro-cycloocta[b]pyran-2-one]
Ki (HIV-1 protease [2]): 147 nM and 180 nM and 302 nM

SMILES: CCCC1CCCCCc2c1oc(=O)c([C@@H](c1ccccc1)C1CC1)c2O (single isomer, unassigned) [Example 234, 3-(R)-(Cyclopropylphenylmethyl)4-hydroxy-10-(R or S)-propyl-5,6,7,8,9,10-hexahydro-cycloocta[b]pyran-2-one]
Ki (HIV-1 protease [2]): 12.8 nM and 13 nM and 18.8 nM

SMILES: CCCC1CCCCCc2c1oc(=O)c([C@H](c1ccccc1)C1CC1)c2O (single isomer, unassigned) [Example 236, 3-(S)-(Cyclopropylphenylmethyl)-4-hydroxy-10-(R or S)-propyl-5,6,7,8,9,10-hexahydro-cycloocta[b]pyran-2-one]
Ki (HIV-1 protease [2]): 10 nM and 8 nM

SMILES: CCCC1CCCCCc2c1oc(=O)c([C@H](c1ccccc1)C1CC1)c2O (single isomer, unassigned) [Example 237, 3-(S)-(Cyclopropylphenylmethyl)-4-hydroxy-10-(R or S)-propyl-5,6,7,8,9,10-hexahydro-cycloocta[b]pyran-2-one]
Ki (HIV-1 protease [2]): 60 nM and 117 nM

SMILES: O=c1oc2c(c(O)c1[C@@H](c1ccccc1)C1CC1)CCCCCC2 [Example 228]
Ki (HIV-1 protease [2]): 34.8 nM

SMILES: O=c1oc2c(c(O)c1[C@H](c1cccc(NS(=O)(=O)/C=C/c3ccccc3)c1)C1CC1)CCCCCC2 [Example 257, (-)-N-[3-[Cyclopropyl(5,6,7,8,9,10-hexahydro4-hydroxy-2-oxo-2H cycloocta[b]pyran-3-yl)methyl]phenyl]-2-phenyl-[(E)]-ethenesulfonamide]
Ki (HIV-1 protease [2]): 3 nM

SMILES: O=c1oc2c(c(O)c1[C@@H](c1cccc(NS(=O)(=O)/C=C/c3ccccc3)c1)C1CC1)CCCCCC2 [Example 261, (+)-N-[3-[Cyclopropyl(5,6,7,8,9,10-hexahydro-4-hydroxy-2-oxo-2H-cycloocta[b]pyran-3-yl)methyl]phenyl]-2-phenyl-[(E)]-ethenesulfonamide]
Ki (HIV-1 protease [2]): 3.1 nM

SMILES: Cn1cnc(S(=O)(=O)Nc2ccc(C(c3c(O)c4c(oc3=O)CCCCCC4)C3CC3)cc2)c1 (stereo not drawn) [Example 476, N-[4-[Cyclopropyl (5,6,7,8,9,10-hexahydro-4-hydroxy-2-oxo-2H-cycloocta[b]pyran-3-yl)methyl]phenyl]-1-methyl-1H-imidazole-4-sulfonamide]
inhibition at 1.1 µM (HIV-1 protease [1]; [8]): 19.5%
inhibition at 3.3 µM (HIV-1 protease [1]; [9]): 53.1%
inhibition at 10 µM (HIV-1 protease [1]; [10]): 83%
inhibition at 30 µM (HIV-1 protease [1]; [11]): 83.1%

SMILES: CC(C)(C)OC(=O)NCc1ccc(C(c2c(O)c3c(oc2=O)CCCCCC3)C2CC2)o1 (stereo not drawn) [Example 480, 3-(α-Cyclopropyl(5-(N-carbo-t-butoxy)aminomethyl)furfur-2-yl)-4-hydroxy-5,6,7,8,9,10-hexahydrocycloocata[b]pyran-2-one]
inhibition at 3.3 µM (HIV-1 protease [1]; [9]): 19.2%
inhibition at 10 µM (HIV-1 protease [1]; [10]): 45.5%
inhibition at 30 µM (HIV-1 protease [1]; [11]): 78.2%

SMILES: O=c1oc2c(c(O)c1C(c1ccccc1)c1ccccc1)CCCCCC2 [Example 481, 3-(Diphenylmethyl)-5,6,7,8,9,10-hexahydro-4-hydroxy-2H-cycloocta[b]pyran-2-one]
inhibition at 0.37 µM (HIV-1 protease [1]; [3]): 118%
inhibition at 1.1 µM (HIV-1 protease [1]; [4]): 51.2%
inhibition at 3.3 µM (HIV-1 protease [1]; [5]): 85.3%
inhibition at 10 µM (HIV-1 protease [1]; [6]): 98%
inhibition at 30 µM (HIV-1 protease [1]; [7]): 107%

SMILES: O=c1oc2c(c(O)c1C(Cc1ccccc1)Cc1ccccc1)CCCCC2 [Example 482, 3-(1,3-Diphenyl-2-propyl)-5,6,7,8,9-pentahydro-4-hydroxy-2H-cyclohepta[b]pyran-2-one]
inhibition at 3.3 µM (HIV-1 protease [1]; [9]): 20%
inhibition at 10 µM (HIV-1 protease [1]; [10]): 63.2%
inhibition at 30 µM (HIV-1 protease [1]; [11]): 92.6%

SMILES: Nc1cc(N)cc(C(c2c(O)c3c(oc2=O)CCCCCC3)C2CC2)c1 (stereo not drawn) [Example 484, 3-[Cyclopropyl-(3,5-diamino-phenyl)-methyl]-4-hydroxy-5,6,7,8,9,10-hexahydro-cycloocta[b]pyran-2-one]
inhibition at 3.3 µM (HIV-1 protease [1]; [9]): 17.7%
inhibition at 10 µM (HIV-1 protease [1]; [10]): 37.2%
inhibition at 30 µM (HIV-1 protease [1]; [11]): 51.6%

SMILES: O=c1oc2c(c(O)c1C(c1cc(NS(=O)(=O)c3cccc4cccnc34)cc(NS(=O)(=O)c3cccc4cccnc34)c1)C1CC1)CCCCCC2 (stereo not drawn) [Example 485, N-[3-[Cyclopropyl-(4-hydroxy-2-oxo-5,6,7,8,9,10-hexahydro-2H-cycloocta[b]pyran-3-yl)-methyl]-5-8-quinolinesulfonylamino-phenyl]-8-quinolinesulfonamide]
inhibition at 10 µM (HIV-1 protease [1]; [10]): 13.1%
inhibition at 30 µM (HIV-1 protease [1]; [11]): 54.2%

Further lines, results first:

Ki (HIV-1 protease [2]): 1.23 nM
SMILES: O=c1oc2c(c(O)c1[C@H](c1cccc(NS(=O)(=O)c3ccc(Cl)cc3)c1)C1CC1)CCCCCC2 [Example 250, (-)-4-Chloro-N-[3-[cyclopropyl(5,6,7,8,9,10-hexahydro-4-hydroxy-2-oxo-2H-cycloocta[b]pyran-3-yl)methyl]phenyl]-benzenesulfonamide]

Ki (HIV-1 protease [2]): 1.25 nM
SMILES: O=c1oc2c(c(O)c1[C@@H](c1cccc(NS(=O)(=O)c3ccc(Cl)cc3)c1)C1CC1)CCCCCC2 [Example 251, (+)-4-Chloro-N-[3-[cyclopropyl(5,6,7,8,9,10-hexahydro-4-hydroxy-2-oxo-2H-cycloocta[b]pyran-3-yl)methyl]phenyl]-benzenesulfonamide]

Ki (HIV-1 protease [2]): 0.62 nM
SMILES: N#Cc1ccc(S(=O)(=O)Nc2cccc([C@@H](c3c(O)c4c(oc3=O)CCCCCC4)C3CC3)c2)cc1 [Example 255, (-)-4-Cyano-N-[3-[cyclopropyl(5,6,7,8,9, 10-hexahydro-4-hydroxy-2-oxo-2H-cycloocta[b]pyran-3-yl)methyl]phenyl]-benzenesulfonamide]

Ki (HIV-1 protease [2]): 7.6 nM
SMILES: O=c1oc2c(c(O)c1[C@H](c1cccc(NS(=O)(=O)c3ccccc3)c1)C1CC1)CCCCCC2 [Example 258, (-)-N-[3-[Cyclopropyl(5,6,7,8,9,10-hexahydro4-hydroxy-2-oxo-2H-cycloocta[b]pyran-3-yl)methyl]phenyl]-benzenesulfonamide]

Ki (HIV-1 protease [2]): 0.71 nM
SMILES: N#Cc1ccc(S(=O)(=O)Nc2cccc([C@H](c3c(O)c4c(oc3=O)CCCCCC4)C3CC3)c2)cc1 [Example 259, (+)4-Cyano-N-[3-[cyclopropyl(5,6,7,8,9,10-hexahydro4-hydroxy-2-oxo-2H-cycloocta[b]pyran-3-yl)methyl]phenyl]-benzenesulfonamide]

Ki (HIV-1 protease [2]): 2.3 nM
SMILES: O=c1oc2c(c(O)c1[C@@H](c1cccc(NS(=O)(=O)c3ccccc3)c1)C1CC1)CCCCCC2 [Example 401, N-[3-[Cyclopropyl(5,6,7,8,9,10-hexahydro-4-hydroxy-2-oxo-2H-cycloocta[b]pyran-3-yl)methyl]phenyl]-(R)-benzenesulfonamide]

inhibition at 0.37 µM (HIV-1 protease [1]; dose 0.370 uM, read-out: HIV-1 Protease % Inhib): 11.8%
inhibition at 1.1 µM (HIV-1 protease [1]; [8]): 27.9%
inhibition at 3.3 µM (HIV-1 protease [1]; [9]): 84.1%
inhibition at 10 µM (HIV-1 protease [1]; [10]): 103%
inhibition at 30 µM (HIV-1 protease [1]; [11]): 110%
SMILES: O=c1oc2c(c(O)c1C(c1ccc(NS(=O)(=O)c3cccc([N+](=O)[O-])c3)cc1)C1CC1)CCCCCC2 (stereo not drawn) [Example 475, Benzenesulfonamide, 3-nitro-N-[4-[cyclopropyl (5,6,7,8,9,10-hexahydro-4-hydroxy-2-oxo-2H-cycloocta[b]pyran-3-yl)methyl]phenyl]-]
